From PubChem BioAssay AID330 (DTP/NCI, 2004)
“And” between values parts separate entries of the source, which are not always exact repeats. Equal values may be shown once. Toxic doses and inconclusive results are not listed. Rule for the calls: active = survival T/C of 150% or more; inactive = T/C below 125% in these data.

Tested on: P388 leukemia ip, CD2F1 mice, survival T/C
Assay: NCI In Vivo Anticancer Drug Screen. Data for tumor model P388 Leukemia (intraperitoneal) in CD2F1 (CDF1) mice
Details: endpoint: median survival time, higher = longer survival
Summary of the method: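 Mice carrying the transplanted tumor received test compound or vehicle. Survival was recorded in each group, and the value is the treated-group measurement divided by that of the vehicle-treated control group.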

[1] = dose: 100.0 mg/kg/injection, schedule: Q04DX003 (ip), vehicle: saline with Tween-80
[2] = dose: 50.0 mg/kg/injection, schedule: Q04DX003 (ip), vehicle: saline with Tween-80
[3] = dose: 200.0 mg/kg/injection, schedule: Q04DX003 (ip), vehicle: saline with Tween-80
[4] = dose: 400.0 mg/kg/injection, schedule: Q04DX003 (ip), vehicle: saline with Tween-80
[5] = dose: 50.0 mg/kg/injection, schedule: Q01DX005 (ip), vehicle: saline with Tween-80
[6] = dose: 100.0 mg/kg/injection, schedule: Q01DX005 (ip), vehicle: saline with Tween-80
[7] = dose: 12.5 mg/kg/injection, schedule: Q01DX009 (ip), vehicle: distilled water + Tween-80
[8] = dose: 25.0 mg/kg/injection, schedule: Q01DX009 (ip), vehicle: distilled water + Tween-80
[9] = dose: 50.0 mg/kg/injection, schedule: Q01DX005 (ip), vehicle: Klucel (hydroxypropylcellulose) (HPC)
[10] = dose: 100.0 mg/kg/injection, schedule: Q01DX005 (ip), vehicle: Klucel (hydroxypropylcellulose) (HPC)
[11] = dose: 200.0 mg/kg/injection, schedule: Q01DX005 (ip), vehicle: Klucel (hydroxypropylcellulose) (HPC)
[12] = dose: 6.25 mg/kg/injection, schedule: Q01DX009 (ip), vehicle: saline with Tween-80
[13] = dose: 12.5 mg/kg/injection, schedule: Q01DX009 (ip), vehicle: saline with Tween-80
[14] = dose: 25.0 mg/kg/injection, schedule: Q01DX009 (ip), vehicle: saline with Tween-80
[15] = dose: 50.0 mg/kg/injection, schedule: Q01DX009 (ip), vehicle: Klucel (hydroxypropylcellulose) (HPC)
[16] = dose: 100.0 mg/kg/injection, schedule: Q01DX009 (ip), vehicle: Klucel (hydroxypropylcellulose) (HPC)
[17] = dose: 200.0 mg/kg/injection, schedule: Q01DX009 (ip), vehicle: Klucel (hydroxypropylcellulose) (HPC)
[18] = dose: 50.0 mg/kg/injection, schedule: Q01DX009 (ip), vehicle: saline with Tween-80
[19] = dose: 100.0 mg/kg/injection, schedule: Q01DX009 (ip), vehicle: saline with Tween-80
[20] = dose: 200.0 mg/kg/injection, schedule: Q01DX009 (ip), vehicle: saline with Tween-80

Measured: T/C

COc1ccc(NC(=S)NN)cc1
inactive: dose: 37.5 mg/kg/injection, schedule: Q01DX009 (ip), vehicle: saline with Tween-80 95 % of control | dose: 75.0 mg/kg/injection, schedule: Q01DX009 (ip), vehicle: saline with Tween-80 90 % of control | [1] 87 % of control

CC(=O)c1cc2cc3c4c(c2oc1=O)CCCN4CCC3
inactive: dose: 60.0 mg/kg/injection, schedule: Q01DX005 (ip), vehicle: Klucel (hydroxypropylcellulose) (HPC) 104 % of control | dose: 120.0 mg/kg/injection, schedule: Q01DX005 (ip), vehicle: Klucel (hydroxypropylcellulose) (HPC) 112 % of control

CC(=O)Nc1nc2c(=O)[nH]c(N)nc2n1C1OC(COC(C)=O)C(OC(C)=O)C1OC(C)=O (stereo not drawn)
inactive: [2] 96 % of control | [1] 100 % of control | [3] 105 % of control | [4] 102 % of control

CCN(CC)c1ncnc2c1nnn2C
inactive: [5] 101 % of control | [6] 100 % of control | dose: 200.0 mg/kg/injection, schedule: Q01DX005 (ip), vehicle: saline with Tween-80 107 % of control

O=C(Nc1ccccc1)Nc1nncs1
inactive: dose: 1.56 mg/kg/injection, schedule: Q01DX009 (ip), vehicle: distilled water + Tween-80 104 % of control | dose: 3.13 mg/kg/injection, schedule: Q01DX009 (ip), vehicle: distilled water + Tween-80 109 % of control | dose: 6.25 mg/kg/injection, schedule: Q01DX009 (ip), vehicle: distilled water + Tween-80 103 % of control | [7] 104 % of control | [8] 104 % of control

C=C(C)C(=NC)NC(C)(C)C
inactive: [9] 100 % of control | [10] 102 % of control

CC(=NCCCCCCN=C(C)c1cc(O)ccc1O)c1cc(O)ccc1O
inactive: [9] 92 % of control | [10] 94 % of control | [11] 87 % of control

COc1cc(O)c(Cc2ccccc2O)c(O)c1C(=O)CCc1ccccc1
inactive: dose: 1.25 mg/kg/injection, schedule: Q01DX009 (ip), vehicle: saline with Tween-80 100 % of control | dose: 1.25 mg/kg/injection, schedule: Q01DX009 (ip), vehicle: saline 104 % of control | dose: 2.5 mg/kg/injection, schedule: Q01DX009 (ip), vehicle: saline with Tween-80 105 % of control | dose: 2.5 mg/kg/injection, schedule: Q01DX009 (ip), vehicle: saline 104 % of control | dose: 5.0 mg/kg/injection, schedule: Q01DX009 (ip), vehicle: saline with Tween-80 111 % of control | dose: 5.0 mg/kg/injection, schedule: Q01DX009 (ip), vehicle: saline 104 % of control | dose: 10.0 mg/kg/injection, schedule: Q01DX009 (ip), vehicle: saline 104 % of control | dose: 20.0 mg/kg/injection, schedule: Q01DX009 (ip), vehicle: saline 101 % of control

O=S(=O)(O)c1ccc(Cl)c(N=N/C=N/Nc2cc(S(=O)(=O)O)ccc2Cl)c1
inactive: [9] 100 % of control | [10] 98 % of control | [11] 100 % of control

COC(=O)/C=C\C=C(\CBr)C(=O)OC
inactive: [12] 91 % of control | dose: 6.25 mg/kg/injection, schedule: Q04DX003 (ip), vehicle: saline 110 % of control | [13] 95 % of control | dose: 12.5 mg/kg/injection, schedule: Q04DX003 (ip), vehicle: saline 110 % of control | [14] 91 % of control | dose: 25.0 mg/kg/injection, schedule: Q04DX003 (ip), vehicle: saline 110 % of control

NC(CSCC(=O)O)C(=O)O (stereo not drawn)
inactive: dose: 25.0 mg/kg/injection, schedule: Q01DX009 (ip), vehicle: Klucel (hydroxypropylcellulose) (HPC) 95 % of control | [15] 111 % of control | [16] 105 % of control | [17] 98 % of control

CN1CCc2cc3c(cc2C1O)OCO3 (stereo not drawn)
inactive: [5] 100 % of control | [6] 110 % of control

Nc1nc2n(n1)C(=O)C(=O)N2
inactive: [2] 100 % of control | [1] 106 % of control | [3] 103 % of control | [4] 103 % of control

COc1ccc(-c2cc(=O)c3c(O)cc(O)c(-c4cc(-c5cc(=O)c6c(O)cc(OC)cc6o5)ccc4OC)c3o2)cc1
inactive: [9] 105 % of control | [10] 99 % of control | [11] 88 % of control

O=C(CNNC(=S)Nc1cccc2ccccc12)c1cccc2c1Nc1ccccc1S2
inactive: [15] 101 % of control | [16] 103 % of control | [17] 101 % of control

O=C(OCC1OC(C2N(c3ccccc3)CCN2c2ccccc2)C(OC(=O)c2ccccc2)C1OC(=O)c1ccccc1)c1ccccc1 (stereo not drawn)
inactive: [7] 102 % of control | [8] 102 % of control | dose: 50.0 mg/kg/injection, schedule: Q01DX009 (ip), vehicle: distilled water + Tween-80 94 % of control | dose: 100.0 mg/kg/injection, schedule: Q01DX009 (ip), vehicle: distilled water + Tween-80 102 % of control | dose: 200.0 mg/kg/injection, schedule: Q01DX009 (ip), vehicle: distilled water + Tween-80 93 % of control

COc1ccccc1-c1cn(O)c(=N)c(C#N)n1
inactive: [12] 89 % of control | [13] 94 % of control | [14] 94 % of control

CCCCn1ccc(=O)[nH]c1=O
inactive: [9] 93 % of control | [10] 99 % of control | [11] 101 % of control

COc1cccc2c1C(=O)c1c(O)c3c(c(O)c1C2=O)CC(O)(C(C)=O)CC3OC1CC(NC(=O)C(F)(F)F)C(OC(=O)c2ccc([N+](=O)[O-])cc2)C(C)O1 (stereo not drawn)
inactive: dose: 3.13 mg/kg/injection, schedule: Q04DX003 (ip), vehicle: distilled water + Tween-80 102 % of control and 98 % of control | dose: 6.25 mg/kg/injection, schedule: Q04DX003 (ip), vehicle: distilled water + Tween-80 101 % of control and 100 % of control | dose: 12.5 mg/kg/injection, schedule: Q04DX003 (ip), vehicle: distilled water + Tween-80 99 % of control and 97 % of control | dose: 25.0 mg/kg/injection, schedule: Q04DX003 (ip), vehicle: distilled water + Tween-80 111 % of control and 108 % of control | dose: 50.0 mg/kg/injection, schedule: Q04DX003 (ip), vehicle: distilled water + Tween-80 95 % of control and 100 % of control

COC(=O)/C=C1\C=CC=CN1C
inactive: [18] 105 % of control | [19] 106 % of control | [20] 106 % of control

CC/C(C)=N/SC(c1ccccc1)(c1ccccc1)c1ccccc1
inactive: dose: 100.0 mg/kg/injection, schedule: Q04DX002 (ip), vehicle: saline with Tween-80 101 % of control | dose: 200.0 mg/kg/injection, schedule: Q04DX002 (ip), vehicle: saline with Tween-80 91 % of control | dose: 400.0 mg/kg/injection, schedule: Q04DX002 (ip), vehicle: saline with Tween-80 89 % of control

c1ccc2c3c(ccc2c1)Oc1ccc2ccccc2c1C3
inactive: dose: 100.0 mg/kg/injection, schedule: Q01DX001 (ip), vehicle: Klucel (hydroxypropylcellulose) (HPC) 102 % of control | dose: 200.0 mg/kg/injection, schedule: Q01DX001 (ip), vehicle: Klucel (hydroxypropylcellulose) (HPC) 97 % of control | dose: 400.0 mg/kg/injection, schedule: Q01DX001 (ip), vehicle: Klucel (hydroxypropylcellulose) (HPC) 100 % of control

CCN(CC)C(=O)C(F)C(F)(F)C(F)(F)COCc1ccccc1 (stereo not drawn)
inactive: [18] 99 % of control | [19] 100 % of control | [20] 100 % of control
